In article PMC5862592, “CDK8/19 inhibition induces premature G1/S transition and ATR-dependent cell death in prostate cancer cells” (Oncotarget, 2018):
pIC50: −log10 of the molar value. Like-named read-outs stand apart in the source and are kept apart here.

Assays:
ABL1-phosphorylated = target: T1, ABL1-phosphorylated (Homo sapiens, UniProt P00519); experiment: biochemical; parameters: KINOMEscan active site-directed competition binding assay (DiscoveRx), 456 kinases, per cent of control at 300 nM; details: read-out: Percent of Control (%)
T1 construct: phosphorylated
In short: (§1)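 Each compound is tested at 300 nmol/L against a panel of 456 kinases. Interaction is quantified by competition for the kinase active site.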

CAMK2A = CAMK2A (Homo sapiens, UniProt Q9UQM7); experiment: biochemical; parameters: KINOMEscan active site-directed competition binding assay (DiscoveRx), 456 kinases, per cent of control at 300 nM; details: read-out: Percent of Control (%)
In short: as §1

EPHA6 = EPHA6 (Homo sapiens, UniProt Q9UF33); experiment: biochemical; parameters: KINOMEscan active site-directed competition binding assay (DiscoveRx), 456 kinases, per cent of control at 300 nM; details: read-out: Percent of Control (%)
In short: as §1

FGFR2 = FGFR2 (Homo sapiens, UniProt P21802); experiment: biochemical; parameters: KINOMEscan active site-directed competition binding assay (DiscoveRx), 456 kinases, per cent of control at 300 nM; details: read-out: Percent of Control (%)
In short: as §1

GAK = GAK (Homo sapiens, UniProt O14976); experiment: biochemical; parameters: KINOMEscan active site-directed competition binding assay (DiscoveRx), 456 kinases, per cent of control at 300 nM; details: read-out: Percent of Control (%)
In short: as §1

IKK-alpha = target: T2, IKK-alpha (Homo sapiens, UniProt O15111); experiment: biochemical; parameters: KINOMEscan active site-directed competition binding assay (DiscoveRx), 456 kinases, per cent of control at 300 nM; details: read-out: Percent of Control (%)
T2 construct: gene CHUK
In short: as §1

INSRR = INSRR (Homo sapiens, UniProt P14616); experiment: biochemical; parameters: KINOMEscan active site-directed competition binding assay (DiscoveRx), 456 kinases, per cent of control at 300 nM; details: read-out: Percent of Control (%)
In short: as §1

ITK = ITK (Homo sapiens, UniProt Q08881); experiment: biochemical; parameters: KINOMEscan active site-directed competition binding assay (DiscoveRx), 456 kinases, per cent of control at 300 nM; details: read-out: Percent of Control (%)
In short: as §1

MAP3K15 = MAP3K15 (Homo sapiens, UniProt Q6ZN16); experiment: biochemical; parameters: KINOMEscan active site-directed competition binding assay (DiscoveRx), 456 kinases, per cent of control at 300 nM; details: read-out: Percent of Control (%)
In short: as §1

MRCKA = target: T3, MRCKA (Homo sapiens, UniProt Q5VT25); experiment: biochemical; parameters: KINOMEscan active site-directed competition binding assay (DiscoveRx), 456 kinases, per cent of control at 300 nM; details: read-out: Percent of Control (%)
T3 construct: gene CDC42BPA
In short: as §1

NIK = target: T4, NIK (Homo sapiens, UniProt Q99558); experiment: biochemical; parameters: KINOMEscan active site-directed competition binding assay (DiscoveRx), 456 kinases, per cent of control at 300 nM; details: read-out: Percent of Control (%)
T4 construct: gene MAP3K14
In short: as §1

PIK3CA(M1043I) = PIK3CA(M1043I) (Homo sapiens, UniProt P42336, M1043I); experiment: biochemical; parameters: KINOMEscan active site-directed competition binding assay (DiscoveRx), 456 kinases, per cent of control at 300 nM; details: read-out: Percent of Control (%)
In short: as §1

PIK3CA(Q546K) = PIK3CA(Q546K) (Homo sapiens, UniProt P42336, Q546K); experiment: biochemical; parameters: KINOMEscan active site-directed competition binding assay (DiscoveRx), 456 kinases, per cent of control at 300 nM; details: read-out: Percent of Control (%)
In short: as §1

PIM3 = PIM3 (Homo sapiens, UniProt Q86V86); experiment: biochemical; parameters: KINOMEscan active site-directed competition binding assay (DiscoveRx), 456 kinases, per cent of control at 300 nM; details: read-out: Percent of Control (%)
In short: as §1

PLK2 = PLK2 (Homo sapiens, UniProt Q9NYY3); experiment: biochemical; parameters: KINOMEscan active site-directed competition binding assay (DiscoveRx), 456 kinases, per cent of control at 300 nM; details: read-out: Percent of Control (%)
In short: as §1

RET(M918T) = RET(M918T) (Homo sapiens, UniProt P07949, M918T); experiment: biochemical; parameters: KINOMEscan active site-directed competition binding assay (DiscoveRx), 456 kinases, per cent of control at 300 nM; details: read-out: Percent of Control (%)
In short: as §1

RIOK1 = RIOK1 (Homo sapiens, UniProt Q9BRS2); experiment: biochemical; parameters: KINOMEscan active site-directed competition binding assay (DiscoveRx), 456 kinases, per cent of control at 300 nM; details: read-out: Percent of Control (%)
In short: as §1

TAK1 = target: T5, TAK1 (Homo sapiens, UniProt O43318); experiment: biochemical; parameters: KINOMEscan active site-directed competition binding assay (DiscoveRx), 456 kinases, per cent of control at 300 nM; details: read-out: Percent of Control (%)
T5 construct: gene MAP3K7
In short: as §1

TAOK2 = TAOK2 (Homo sapiens, UniProt Q9UL54); experiment: biochemical; parameters: KINOMEscan active site-directed competition binding assay (DiscoveRx), 456 kinases, per cent of control at 300 nM; details: read-out: Percent of Control (%)
In short: as §1

TSSK1B = TSSK1B (Homo sapiens, UniProt Q9BXA7); experiment: biochemical; parameters: KINOMEscan active site-directed competition binding assay (DiscoveRx), 456 kinases, per cent of control at 300 nM; details: read-out: Percent of Control (%)
In short: as §1

ULK3 = ULK3 (Homo sapiens, UniProt Q6PHR2); experiment: biochemical; parameters: KINOMEscan active site-directed competition binding assay (DiscoveRx), 456 kinases, per cent of control at 300 nM; details: read-out: Percent of Control (%)
In short: as §1

CDK19 = target: T6, CDK19 (Homo sapiens, UniProt Q9BWU1); experiment: TR-FRET ligand displacement assay (Kinase Tracer […], Tb-anti-GST); also KINOMEscan […] inhibition at […]; format: binding
T6 construct: GST-CDK19; with Cyclin C

T5 sequence (O43318 whole entry): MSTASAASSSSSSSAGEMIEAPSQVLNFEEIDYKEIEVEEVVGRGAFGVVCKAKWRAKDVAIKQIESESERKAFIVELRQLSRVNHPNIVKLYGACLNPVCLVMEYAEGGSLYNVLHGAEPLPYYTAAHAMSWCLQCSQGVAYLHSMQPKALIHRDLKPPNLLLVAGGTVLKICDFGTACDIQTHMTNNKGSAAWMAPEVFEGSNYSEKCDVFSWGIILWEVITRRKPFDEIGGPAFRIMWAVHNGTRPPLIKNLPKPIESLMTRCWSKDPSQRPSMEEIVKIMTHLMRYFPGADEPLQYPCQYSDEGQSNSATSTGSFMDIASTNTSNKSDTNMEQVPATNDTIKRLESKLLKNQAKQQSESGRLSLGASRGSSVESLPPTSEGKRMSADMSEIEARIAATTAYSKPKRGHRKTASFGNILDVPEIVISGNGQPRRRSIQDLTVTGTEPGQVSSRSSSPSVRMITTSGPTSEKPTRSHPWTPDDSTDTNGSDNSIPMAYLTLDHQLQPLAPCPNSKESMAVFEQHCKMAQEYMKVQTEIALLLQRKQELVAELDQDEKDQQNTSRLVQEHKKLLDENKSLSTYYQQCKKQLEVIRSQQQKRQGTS
Chain of TSSK1B (Q9BXA7 whole entry): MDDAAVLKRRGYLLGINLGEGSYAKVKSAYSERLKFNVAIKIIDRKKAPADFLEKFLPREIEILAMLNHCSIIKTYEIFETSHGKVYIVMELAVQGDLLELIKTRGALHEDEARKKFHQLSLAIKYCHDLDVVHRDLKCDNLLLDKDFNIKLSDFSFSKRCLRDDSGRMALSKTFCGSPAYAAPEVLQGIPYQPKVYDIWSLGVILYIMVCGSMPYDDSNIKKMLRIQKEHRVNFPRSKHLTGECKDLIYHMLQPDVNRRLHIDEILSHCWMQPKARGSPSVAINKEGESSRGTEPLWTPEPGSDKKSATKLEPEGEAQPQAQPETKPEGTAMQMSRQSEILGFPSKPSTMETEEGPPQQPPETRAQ
Chain of TAOK2 (Q9UL54 whole entry): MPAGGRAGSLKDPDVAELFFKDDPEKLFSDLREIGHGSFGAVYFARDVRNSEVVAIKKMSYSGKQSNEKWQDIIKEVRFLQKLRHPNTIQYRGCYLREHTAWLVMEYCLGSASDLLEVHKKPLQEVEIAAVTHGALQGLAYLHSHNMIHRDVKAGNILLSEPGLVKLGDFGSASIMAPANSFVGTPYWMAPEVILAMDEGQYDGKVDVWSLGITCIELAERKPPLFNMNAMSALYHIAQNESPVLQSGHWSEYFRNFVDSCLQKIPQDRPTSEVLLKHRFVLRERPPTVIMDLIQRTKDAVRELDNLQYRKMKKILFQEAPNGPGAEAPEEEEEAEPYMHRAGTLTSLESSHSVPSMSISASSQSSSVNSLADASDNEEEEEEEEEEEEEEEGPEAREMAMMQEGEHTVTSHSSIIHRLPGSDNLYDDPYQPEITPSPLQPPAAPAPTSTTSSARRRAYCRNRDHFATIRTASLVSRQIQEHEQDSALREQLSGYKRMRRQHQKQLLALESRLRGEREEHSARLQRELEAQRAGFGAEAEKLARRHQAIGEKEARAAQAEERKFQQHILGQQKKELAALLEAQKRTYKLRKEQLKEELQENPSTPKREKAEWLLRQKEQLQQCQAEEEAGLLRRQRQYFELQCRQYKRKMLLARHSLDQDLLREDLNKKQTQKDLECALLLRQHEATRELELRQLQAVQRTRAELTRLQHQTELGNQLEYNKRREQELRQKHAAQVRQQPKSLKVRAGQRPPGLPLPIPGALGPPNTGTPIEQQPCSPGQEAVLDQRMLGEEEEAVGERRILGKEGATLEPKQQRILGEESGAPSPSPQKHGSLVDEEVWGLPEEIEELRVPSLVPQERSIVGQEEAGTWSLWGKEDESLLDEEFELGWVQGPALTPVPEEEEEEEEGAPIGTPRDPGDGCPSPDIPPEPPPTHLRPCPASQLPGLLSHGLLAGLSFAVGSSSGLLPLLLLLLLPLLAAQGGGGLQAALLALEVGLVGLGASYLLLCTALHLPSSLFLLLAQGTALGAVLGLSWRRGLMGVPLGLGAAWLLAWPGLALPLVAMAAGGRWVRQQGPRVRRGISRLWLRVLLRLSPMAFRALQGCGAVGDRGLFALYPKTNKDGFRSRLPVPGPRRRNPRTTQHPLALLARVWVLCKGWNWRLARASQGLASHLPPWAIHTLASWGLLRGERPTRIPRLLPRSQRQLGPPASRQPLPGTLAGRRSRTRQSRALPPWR
Chain of RIOK1 (Q9BRS2 whole entry): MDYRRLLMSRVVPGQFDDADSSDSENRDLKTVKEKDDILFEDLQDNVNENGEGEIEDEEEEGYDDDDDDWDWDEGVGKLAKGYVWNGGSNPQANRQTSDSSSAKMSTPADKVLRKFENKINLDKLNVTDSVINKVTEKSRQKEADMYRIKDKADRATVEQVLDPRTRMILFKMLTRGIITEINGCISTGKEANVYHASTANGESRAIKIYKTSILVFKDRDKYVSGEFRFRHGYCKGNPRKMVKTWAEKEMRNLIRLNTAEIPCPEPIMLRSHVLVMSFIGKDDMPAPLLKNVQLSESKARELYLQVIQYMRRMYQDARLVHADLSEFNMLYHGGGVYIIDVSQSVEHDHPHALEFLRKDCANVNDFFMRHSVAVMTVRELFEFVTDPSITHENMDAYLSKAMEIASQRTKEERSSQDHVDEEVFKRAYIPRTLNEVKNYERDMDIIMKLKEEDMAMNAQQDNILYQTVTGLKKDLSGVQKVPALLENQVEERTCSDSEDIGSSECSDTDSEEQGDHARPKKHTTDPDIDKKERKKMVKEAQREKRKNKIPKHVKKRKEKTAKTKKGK
Chain of FGFR2 (P21802 whole entry): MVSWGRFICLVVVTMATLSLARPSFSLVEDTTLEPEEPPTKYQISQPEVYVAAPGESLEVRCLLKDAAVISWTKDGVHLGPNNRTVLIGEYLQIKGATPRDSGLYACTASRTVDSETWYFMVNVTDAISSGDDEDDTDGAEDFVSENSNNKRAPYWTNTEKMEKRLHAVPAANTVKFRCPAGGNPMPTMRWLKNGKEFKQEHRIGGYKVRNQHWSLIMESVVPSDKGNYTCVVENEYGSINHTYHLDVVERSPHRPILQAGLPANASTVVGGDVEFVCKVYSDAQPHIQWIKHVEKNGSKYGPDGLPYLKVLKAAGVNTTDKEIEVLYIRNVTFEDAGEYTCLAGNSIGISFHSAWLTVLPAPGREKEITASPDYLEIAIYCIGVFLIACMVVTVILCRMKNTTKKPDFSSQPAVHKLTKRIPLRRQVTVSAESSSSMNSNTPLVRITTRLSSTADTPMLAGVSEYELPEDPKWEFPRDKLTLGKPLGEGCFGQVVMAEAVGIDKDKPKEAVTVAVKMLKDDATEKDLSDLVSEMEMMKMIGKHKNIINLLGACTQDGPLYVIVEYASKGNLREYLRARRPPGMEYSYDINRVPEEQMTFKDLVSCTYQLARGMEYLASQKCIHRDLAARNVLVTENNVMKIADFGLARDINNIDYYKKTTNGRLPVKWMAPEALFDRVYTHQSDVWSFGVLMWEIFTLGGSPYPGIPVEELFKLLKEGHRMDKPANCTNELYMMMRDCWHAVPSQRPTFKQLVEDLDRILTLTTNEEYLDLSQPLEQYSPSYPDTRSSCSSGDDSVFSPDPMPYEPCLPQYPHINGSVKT
Chain of PIK3CA(M1043I) (P42336 whole entry M1043I): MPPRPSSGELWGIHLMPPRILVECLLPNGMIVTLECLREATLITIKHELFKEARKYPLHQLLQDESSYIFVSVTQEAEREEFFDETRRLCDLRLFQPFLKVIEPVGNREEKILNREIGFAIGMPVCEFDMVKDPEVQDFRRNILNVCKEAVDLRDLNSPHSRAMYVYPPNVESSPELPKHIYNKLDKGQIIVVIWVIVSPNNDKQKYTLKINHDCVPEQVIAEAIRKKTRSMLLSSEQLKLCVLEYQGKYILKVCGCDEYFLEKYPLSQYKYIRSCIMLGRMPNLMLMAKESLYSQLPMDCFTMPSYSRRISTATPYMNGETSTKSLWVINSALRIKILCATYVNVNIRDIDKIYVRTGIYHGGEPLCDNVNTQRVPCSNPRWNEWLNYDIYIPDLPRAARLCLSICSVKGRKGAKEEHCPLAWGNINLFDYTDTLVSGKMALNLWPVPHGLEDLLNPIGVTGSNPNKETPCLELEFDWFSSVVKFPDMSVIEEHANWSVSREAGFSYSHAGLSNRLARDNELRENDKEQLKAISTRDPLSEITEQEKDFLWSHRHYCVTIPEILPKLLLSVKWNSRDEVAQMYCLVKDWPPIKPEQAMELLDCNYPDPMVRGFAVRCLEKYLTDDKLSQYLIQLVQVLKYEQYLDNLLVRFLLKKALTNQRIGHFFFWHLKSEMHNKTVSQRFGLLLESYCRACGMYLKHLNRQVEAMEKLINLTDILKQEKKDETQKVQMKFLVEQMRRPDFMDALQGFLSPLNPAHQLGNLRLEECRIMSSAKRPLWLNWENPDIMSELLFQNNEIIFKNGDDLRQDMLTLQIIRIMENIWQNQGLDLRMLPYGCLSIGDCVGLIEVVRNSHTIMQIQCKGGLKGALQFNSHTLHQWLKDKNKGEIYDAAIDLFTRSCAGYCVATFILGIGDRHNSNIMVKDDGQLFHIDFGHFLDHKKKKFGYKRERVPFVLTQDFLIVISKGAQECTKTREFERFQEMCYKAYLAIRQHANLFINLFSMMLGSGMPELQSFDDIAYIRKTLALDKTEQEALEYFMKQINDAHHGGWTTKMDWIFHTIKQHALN
Chain of PIK3CA(Q546K) (P42336 whole entry Q546K): as the sequence (P42336 whole entry M1043I) above, with Q546K, I1043M counted along it

Cc1ncccc1Oc1sc(C(N)=O)c2c1-c1c(cnn1C)CC2 [T-474, 1-methyl-8-((2-methylpyridin-3-yl)oxy)-4,5-dihydro-1H-thieno[3,4-g]indazole-6-carboxamide]
remaining binding at 0.3 µM (ABL1-phosphorylated): 100% | remaining binding at 0.3 µM (CAMK2A): 97% | remaining binding at 0.3 µM (EPHA6): 100% | remaining binding at 0.3 µM (FGFR2): 100% | remaining binding at 0.3 µM (GAK): 92% | remaining binding at 0.3 µM (IKK-alpha): 100% | remaining binding at 0.3 µM (INSRR): 100% | remaining binding at 0.3 µM (ITK): 100% | remaining binding at 0.3 µM (MAP3K15): 100% | remaining binding at 0.3 µM (MRCKA): 100% | remaining binding at 0.3 µM (NIK): 100% | remaining binding at 0.3 µM (PIK3CA(M1043I)): 100% | remaining binding at 0.3 µM (PIK3CA(Q546K)): 100% | remaining binding at 0.3 µM (PIM3): 82% | remaining binding at 0.3 µM (PLK2): 67% | remaining binding at 0.3 µM (RET(M918T)): 100% | remaining binding at 0.3 µM (RIOK1): 98% | remaining binding at 0.3 µM (TAK1): 100% | remaining binding at 0.3 µM (TAOK2): 100% | remaining binding at 0.3 µM (TSSK1B): 100% | remaining binding at 0.3 µM (ULK3): 20%

O=C(/C=C/c1cnccc1-c1ccc(F)cc1)Nc1ccc(CCc2nnco2)cc1 [T-418, (2E)-3-(4-(4-fluorophenyl)pyridin-3-yl)-N-(4-(2-(1,3,4-oxadiazol-2-yl)ethyl)phenyl)acrylamide]
pIC50 (CDK19): 7.21 | remaining binding at 0.3 µM (ABL1-phosphorylated; sheet T-418): 89% | remaining binding at 0.3 µM (CAMK2A; sheet T-418): 96% | remaining binding at 0.3 µM (EPHA6; sheet T-418): 100% | remaining binding at 0.3 µM (FGFR2; sheet T-418): 90% | remaining binding at 0.3 µM (GAK; sheet T-418): 100% | remaining binding at 0.3 µM (IKK-alpha; sheet T-418): 100% | remaining binding at 0.3 µM (INSRR; sheet T-418): 100% | remaining binding at 0.3 µM (ITK; sheet T-418): 100% | remaining binding at 0.3 µM (MAP3K15; sheet T-418): 100% | remaining binding at 0.3 µM (MRCKA; sheet T-418): 100% | remaining binding at 0.3 µM (NIK; sheet T-418): 100% | remaining binding at 0.3 µM (PIK3CA(M1043I); sheet T-418): 100% | remaining binding at 0.3 µM (PIK3CA(Q546K); sheet T-418): 100% | remaining binding at 0.3 µM (PIM3; sheet T-418): 76% | remaining binding at 0.3 µM (PLK2; sheet T-418): 57% | remaining binding at 0.3 µM (RET(M918T); sheet T-418): 98% | remaining binding at 0.3 µM (RIOK1; sheet T-418): 97% | remaining binding at 0.3 µM (TAK1; sheet T-418): 100% | remaining binding at 0.3 µM (TAOK2; sheet T-418): 100% | remaining binding at 0.3 µM (TSSK1B; sheet T-418): 100% | remaining binding at 0.3 µM (ULK3; sheet T-418): 20%
